# Reference: patent EP3597653A1, “CYCLIC INHIBITORS OF HEPATITIS B VIRUS” (IRBM S.P.A., priority 2018, dated 2020)
# Tested on: HBV
# Assay: HBV inhibition assay in HepAD38 cells (extracellular HBV DNA by direct qPCR)
# Type: cell-based
# Conditions: Hepatitis B virus, 8-point dose-response curve, 96 hours, read-out: HBV inh EC50
# In short: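 HepAD38 cells (HepG2, tetracycline-off HBV) induced in tetracycline-free medium, treated 96 h at 37 °C with compound, 0.5% DMSO. Extracellular HBV DNA quantified by direct SYBR qPCR of lysed supernatant, as % of untreated; EC50 from 8-point 1:2 curves; cytotoxicity by CellTiter-Blue.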
row,Compound,EC50 [µM]
1,"O=C(Nc1cc(F)c(F)c(F)c1)c1cc2c(cc1Cl)NCNS2(=O)=O [Example E7, 6-chloro-N-(3,4,5-trifluorophenyl)-3,4-dihydro-2H-benzo[e][1,2,4]thiadiazine-7-carboxamide 1,1-dioxide]",< 1
2,"O=C(Nc1cc(F)c(F)c(F)c1)c1ccc2c(c1)S(=O)(=O)NC(c1c(F)cccc1F)N2 (centres unmarked) [Example E35, 3-(2,6-difluorophenyl)-N-(3,4,5-trifluorophenyl)-3,4-dihydro-2H-benzo[e][1,2,4]thiadiazine-7-carboxamide 1,1-dioxide]",< 1
3,"O=C(Nc1cc(F)c(F)c(F)c1)c1ccc2c(c1)S(=O)(=O)NCCN2 [Example E94, N-(3,4,5-trifluorophenyl)-2,3,4,5-tetrahydrobenzo[f][1,2,5]thiadiazepine-8-carboxamide 1,1-dioxide]",> 1
4,"O=C(Nc1cc(F)c(F)c(F)c1)c1ccc2c(c1)S(=O)(=O)N[C@@]1(N2)C(=O)Nc2ccccc21 (single isomer, unassigned) [Example E130]",< 1
5,"O=C(Nc1cc(F)c(F)c(F)c1)c1cc(F)c2c(c1)S(=O)(=O)NCN2 [Example E72, 5-fluoro-N-(3,4,5-trifluorophenyl)-3,4-dihydro-2H-benzo[e][1,2,4]thiadiazine-7-carboxamide 1,1-dioxide]",> 1

# Same assay, conditions: Hepatitis B virus, compound at 0.5 µM, 96 hours, relative to non-treated reference, read-out: Anti HBV Activity (conc µM)
row,Compound,inhibition at 0.5 µM [%]
1,"O=C(Nc1cc(F)c(F)c(F)c1)c1cnc2c(c1)S(=O)(=O)N([C@H]1CC[C@H](O)CC1)C(=O)N2 [Example E121, trans-2-(4-hydroxycyclohexyl)-3-oxo-N-(3,4,5-trifluorophenyl)-3,4-dihydro-2H-pyrido[2,3-e][1,2,4]thiadiazine-7-carboxamide 1,1-dioxide]",< 50
2,"Cc1cc2c(cc1C(=O)Nc1cc(F)c(F)c(F)c1)S(=O)(=O)NCN2 [Example E9, 6-methyl-N-(3,4,5-trifluorophenyl)-3,4-dihydro-2H-benzo[e][1,2,4]thiadiazine-7-carboxamide 1,1-dioxide]",> 50
3,"C[C@H](N1C(=O)Nc2ccc(C(=O)Nc3cc(F)c(F)c(F)c3)cc2S1(=O)=O)C(F)(F)F [Example E78, (S)-3-oxo-N-(3,4,5-trifluorophenyl)-2-(1,1,1-trifluoropropan-2-yl)-3,4-dihydro-2H-benzo[e][1,2,4]thiadiazine-7-carboxamide 1,1-dioxide]",> 50
4,"O=C(Nc1cc(F)c(F)c(F)c1)c1ccc2c(c1)S(=O)(=O)NC(CCO)N2 (centres unmarked) [Example E22, 3-(2-hydroxyethyl)-N-(3,4,5-trifluorophenyl)-3,4-dihydro-2H-benzo[e][1,2,4]thiadiazine-7-carboxamide 1,1-dioxide]",> 50
5,"O=C(Nc1cc(F)c(F)c(F)c1)c1ccc2c(c1)S(=O)(=O)N(C1CCNCC1)CN2 [Example E61, 2-(piperidin-4-yl)-N-(3,4,5-trifluorophenyl)-3,4-dihydro-2H-benzo[e][1,2,4]thiadiazine-7-carboxamide 1,1-dioxide]",< 50
6,"C[C@H](O)C1Nc2ccc(C(=O)Nc3cc(F)c(F)c(F)c3)cc2S(=O)(=O)N1 (stereo partly drawn) [Example E23, 3-((S)-1-hydroxyethyl)-N-(3,4,5-trifluorophenyl)-3,4-dihydro-2H-benzo[e][1,2,4]thiadiazine-7-carboxamide 1,1-dioxide]",> 50
7,"O=C(Nc1cc(F)c(F)c(F)c1)c1ccc2c(c1)S(=O)(=O)NCN2O [Example E4, 4-hydroxy-N-(3,4,5-trifluorophenyl)-3,4-dihydro-2H-benzo[e][1,2,4]thiadiazine-7-carboxamide 1,1-dioxide]",< 50
8,"O=C(Nc1cc(F)c(F)c(F)c1)c1ccc2c(c1)S(=O)(=O)N1CCCC1N2 (centres unmarked) [Example E64, N-(3,4,5-trifluorophenyl)-2,3,10,10a-tetrahydro-1H-benzo[e]pyrrolo[1,2-b][1,2,4]thiadiazine-7-carboxamide 5,5-dioxide]",< 50

# Same assay, conditions: Hepatitis B virus, compound at 1 µM, 96 hours, relative to non-treated reference, read-out: Anti HBV Activity (conc µM)
row,Compound,inhibition at 1 µM [%]
1,"O=C(Nc1cc(F)c(F)c(F)c1)c1ccc2c(c1)S(=O)(=O)N1CC[C@@H](C1)N2 [Example E105, (5S)-N-(3,4,5-trifluorophenyl)-3,4,5,6-tetrahydro-2,5-methanobenzo[g][1,2,6]thiadiazocine-9-carboxamide 1,1-dioxide]",< 50
2,"O=C(Nc1cc(F)c(F)c(F)c1)c1ccc2c(c1)S(=O)(=O)N1CC(C1)O2 [Example E117, N-(3,4,5-trifluorophenyl)-3,4-dihydro-2,4-methanobenzo[b][1,4,5]oxathiazepine-8-carboxamide 1,1-dioxide]",< 50
3,"O=C(Nc1cc(F)c(F)c(F)c1)c1ccc2c(c1)S(=O)(=O)NC(C(F)F)N2 (centres unmarked) [Example E17, 3-(difluoromethyl)-N-(3,4,5-trifluorophenyl)-3,4-dihydro-2H-benzo[e][1,2,4]thiadiazine-7-carboxamide1,1-dioxide]",> 50
4,"O=C(Nc1cc(F)c(F)c(F)c1)c1ccc2c(c1)S(=O)(=O)N[C@@H]1CCC[C@@H]1N2 [Example E136, (3aR,10aS)-N-(3,4,5-trifluorophenyl)-2,3,3a,4,10,10a-hexahydro-1H-benzo[f]cyclopenta[c][1,2,5]thiadiazepine-7-carboxamide 5,5-dioxide]",< 50
5,"O=C(Nc1cc(F)c(F)c(F)c1)c1ccc2c(c1)S(=O)(=O)N1CCC(C1)O2 (centres unmarked) [Example E118, N-(3,4,5-trifluorophenyl)-4,5-dihydro-3H-2,5-methanobenzo[b][1,4,5]oxathiazocine-9-carboxamide 1,1-dioxide]",< 50
6,"O=C(Nc1cc(F)c(F)c(F)c1)c1ccc2c(c1)S(=O)(=O)Nc1ncnn1-2 [Example E138, N-(3,4,5-trifluorophenyl)-4H-benzo[e][1,2,4]triazolo[5,1-c][1,2,4]thiadiazine-7-carboxamide 5,5-dioxide]",< 50
7,"O=C(Nc1cc(F)c(F)c(F)c1)c1ccc2c(c1)S(=O)(=O)N1CCCC[C@@H]1CN2 [Example E104, (R)-N-(3,4,5-trifluorophenyl)-1,3,4,11,12,12a-hexahydro-2H-benzo[f]pyrido[1,2-b][1,2,5]thiadiazepine-8-carboxamide 6,6-dioxide]",> 50
8,"O=C(Nc1cc(F)c(F)c(F)c1)c1ccc2c(c1)S(=O)(=O)NC(CO)CO2 (centres unmarked) [Example E135, 3-(hydroxymethyl)-N-(3,4,5-trifluorophenyl)-3,4-dihydro-2H-benzo[b][1,4,5]oxathiazepine-8-carboxamide 1,1-dioxide]",< 50
9,"O=C(Nc1ccc(F)c(F)c1)c1ccc2c(c1)S(=O)(=O)NC(c1nccs1)N2 (centres unmarked) [Example E50, N-(3,4-difluorophenyl)-3-(thiazol-2-yl)-3,4-dihydro-2H-benzo[e][1,2,4]thiadiazine-7-carboxamide 1,1-dioxide]",> 50
10,"CC(=O)NC1=Nc2ccc(C(=O)Nc3cc(F)c(F)c(F)c3)cc2S(=O)(=O)N1 [Example E70, 3-acetamido-N-(3,4,5-trifluorophenyl)-2H-benzo[e][1,2,4]thiadiazine-7-carboxamide 1,1-dioxide]",< 50
11,"Cc1cc(C(=O)Nc2cc(F)c(F)c(F)c2)cc2c1NC(c1nccs1)NS2(=O)=O (centres unmarked) [Example E89, 5-methyl-3-(thiazol-2-yl)-N-(3,4,5-trifluorophenyl)-3,4-dihydro-2H-benzo[e][1,2,4]thiadiazine-7-carboxamide 1,1-dioxide]",> 50
12,"O=C(Nc1cc(F)c(F)c(F)c1)c1ccc2c(c1)S(=O)(=O)N[C@H]1CCC[C@H]1N2 [Example E137, (3aS,10aR)-N-(3,4,5-trifluorophenyl)-2,3,3a,4,10,10a-hexahydro-1H-benzo[f]cyclopenta[c][1,2,5]thiadiazepine-7-carboxamide 5,5-dioxide]",< 50
13,"O=C(Nc1cc(F)c(F)c(F)c1)c1ccc2c(c1)S(=O)(=O)N1CCOCC1CN2 (centres unmarked) [Example E108, N-(3,4,5-trifluorophenyl)-1,3,4,11,12,12a-hexahydrobenzo[f][1,4]oxazino[4,3-b][1,2,5]thiadiazepine-8-carboxamide 6,6-dioxide]",< 50
14,"O=C(Nc1cc(F)c(F)c(F)c1)c1ccc2c(c1)S(=O)(=O)N1CCCCC1CN2 (centres unmarked) [Example E101, N-(3,4,5-trifluorophenyl)-1,3,4,11,12,12a-hexahydro-2H-benzo[f]pyrido[1,2-b][1,2,5]thiadiazepine-8-carboxamide 6,6-dioxide]",> 50
15,"O=C(Nc1cc(F)c(F)c(F)c1)c1ccc2c(c1)S(=O)(=O)N(C1CCNCC1)C(=O)N2 [Example E81, 3-oxo-2-(piperidin-4-yl)-N-(3,4,5-trifluorophenyl)-3,4-dihydro-2H-benzo[e][1,2,4]thiadiazine-7-carboxamide 1,1-dioxide]",> 50

# Same assay, conditions: compound at 1 µM, 96 hours, relative to non-treated reference
row,Compound,Anti HBV Activity (conc µM)
1,"CN1CCC(N2C(=O)Nc3ccc(C(=O)Nc4cc(F)c(F)c(F)c4)cc3S2(=O)=O)CC1 [Example E133, 2-(1-methylpiperidin-4-yl)-3-oxo-N-(3,4,5-trifluorophenyl)-3,4-dihydro-2H-benzo[e][1,2,4]thiadiazine-7-carboxamide 1,1-dioxide]",A (1) (HBV inhibition greater than 50% at the concentration indicated in the table)
